# Laboratory results reported in ChEMBL document CHEMBL4339219, “Drug Design and Synthesis of First in Class PDZ1 Targeting NHERF1 Inhibitors as Anticancer Agents” (ACS Med Chem Lett, 2019).
# Key:
# DLD-1 [1] = assay: cells; conditions: Homo sapiens, DLD-1, 72 h
# SW480 [2] = assay: cells; conditions: Homo sapiens, SW480, 72 h
# DLD-1 [3] = assay: cells; conditions: Homo sapiens, DLD-1, 72 h; remark: listed apart in the source
# DLD-1 [4] = assay: cells; conditions: Homo sapiens, DLD-1, 72 h; remark: listed apart in the source
# SW480 [5] = assay: cells; conditions: Homo sapiens, SW480, 72 h; remark: listed apart in the source
# SW480 [6] = assay: cells; conditions: Homo sapiens, SW480, 72 h; remark: listed apart in the source
# SW-620 [7] = assay: cells; conditions: Homo sapiens, SW-620, 72 h
# HEK-293T = assay: Effect on FOP reporter expression in LiCl-induced HEK293T cells incubated for 24 hrs by luciferase reporter gene assay; format: ADME, cell-based; conditions: human
# SW-620 [8] = assay: cells; conditions: Homo sapiens, SW-620, 72 h; remark: listed apart in the source
IC50 (DLD-1 [1]),IC50 (SW480 [2]),IC50 (DLD-1 [3]),IC50 (DLD-1 [4]),IC50 (SW480 [5]),IC50 (SW480 [6]),IC50 (SW-620 [7]),IC50 (SW-620 [8]),Structure (SMILES),Activity (HEK-293T)
28000 nM,10000 nM,–,–,–,–,–,–,Cc1cc([N+](=O)[O-])ccc1NS(=O)(=O)c1cc(Cl)ccc1Cl,–
–,–,800 nM,100 nM,3000 nM,300 nM,22000 nM,–,O=C(Nc1ccccc1CO)c1c[nH]c2ccc(Cl)cc12,–
–,–,–,–,–,–,–,–,CCOC(=O)c1ccc(NS(=O)(=O)c2ccc(Br)cc2)cc1,Non-Toxic
–,–,500 nM,100 nM,900 nM,100 nM,18000 nM,500 nM,O=C(Nc1ccc(CO)cc1)c1[nH]c2ccc(Cl)cc2c1Cc1ccccc1,–
